According to US12662491B2 (Redona Therapeutics, Inc., priority 2020, dated 2026):
pIC50: −log10 of the molar value.

target: T1, Zcchc11 enzyme (Homo sapiens, UniProt Q5TAX3); assay: TUTase assay (Zcchc11 assay, Lin28a-dependent polyuridylation of pre-let-7); format: biochemical; conditions: LIN28A 10 nM, Zcchc11 0.2 nM, 5′-fluorescein pre-let-7 miRNA 2 nM, UTP 5 uM, room temperature, 30 minutes pre-incubation; read-out: Potency Lin28a-dep Z11 IC50
T1 construct: made in house; host or cells: HEK293 cells (Zcchc11); E. coli Rosetta II (LIN28A)
T1 sequence (Q5TAX3 212-1420): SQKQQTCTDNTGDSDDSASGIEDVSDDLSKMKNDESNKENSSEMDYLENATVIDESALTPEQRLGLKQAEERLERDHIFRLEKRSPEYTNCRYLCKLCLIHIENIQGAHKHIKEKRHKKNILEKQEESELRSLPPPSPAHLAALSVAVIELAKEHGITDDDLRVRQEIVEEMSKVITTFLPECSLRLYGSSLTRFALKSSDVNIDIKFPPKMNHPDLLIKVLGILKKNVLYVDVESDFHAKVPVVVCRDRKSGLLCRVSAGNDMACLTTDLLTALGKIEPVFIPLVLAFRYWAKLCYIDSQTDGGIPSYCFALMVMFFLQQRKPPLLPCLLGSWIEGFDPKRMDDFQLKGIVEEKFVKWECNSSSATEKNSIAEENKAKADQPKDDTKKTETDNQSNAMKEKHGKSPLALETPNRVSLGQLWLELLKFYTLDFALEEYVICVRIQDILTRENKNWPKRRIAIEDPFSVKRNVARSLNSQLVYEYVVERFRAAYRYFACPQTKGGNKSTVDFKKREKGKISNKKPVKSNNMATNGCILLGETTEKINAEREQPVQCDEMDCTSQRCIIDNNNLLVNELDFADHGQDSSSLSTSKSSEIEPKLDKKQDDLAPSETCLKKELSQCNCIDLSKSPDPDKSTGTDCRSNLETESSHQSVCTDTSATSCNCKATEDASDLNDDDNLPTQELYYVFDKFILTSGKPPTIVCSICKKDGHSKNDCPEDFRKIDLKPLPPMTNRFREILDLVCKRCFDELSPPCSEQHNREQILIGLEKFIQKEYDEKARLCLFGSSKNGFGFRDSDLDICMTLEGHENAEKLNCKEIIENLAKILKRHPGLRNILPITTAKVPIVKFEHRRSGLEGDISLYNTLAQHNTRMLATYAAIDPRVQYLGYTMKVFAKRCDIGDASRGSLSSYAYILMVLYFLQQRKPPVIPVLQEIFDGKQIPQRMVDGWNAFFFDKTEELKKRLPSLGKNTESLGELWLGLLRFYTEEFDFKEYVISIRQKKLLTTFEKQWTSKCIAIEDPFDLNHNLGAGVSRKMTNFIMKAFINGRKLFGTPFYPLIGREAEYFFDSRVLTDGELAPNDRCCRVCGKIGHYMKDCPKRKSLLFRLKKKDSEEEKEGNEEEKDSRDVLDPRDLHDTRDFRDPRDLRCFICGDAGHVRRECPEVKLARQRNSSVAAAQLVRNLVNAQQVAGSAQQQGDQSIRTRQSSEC
In short: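 Potency is measured as inhibition of LIN28A-driven U-tail addition to 2 nM pre-let-7 by 0.2 nM HEK293-derived Zcchc11 fragment with 5 uM UTP at room temperature. Tail growth appears as fluorescein quenching by an annealing rhodamine-A20 probe.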

SMILES | pIC50
COCC1CC(n2cc(C(=O)O)c(=O)c3cc(F)c(N4CCC[C@@H]4COc4ccccn4)cc32)C1 (stereo partly drawn) [Example 25, 6-fluoro-1-[3-(methoxymethyl)cyclobutyl]-4-oxo-7-[(2R)-2-[(pyridin-2-yloxy)methyl]pyrrolidin-1-yl]-1,4-dihydroquinoline-3-carboxylic acid] | 4.30 to 5.00
CS(=O)(=O)Nc1ccc(-n2cc(C(=O)O)c(=O)c3cc(Cl)c(N4CCC[C@@H]4COc4ncccc4Cl)cc32)cn1 [Example 26, 6-chloro-7-[(2R)-2-{[(3-chloropyridin-2-yl)oxy]methyl}pyrrolidin-1-yl]-1-(6-methanesulfonamidopyridin-3-yl)-4-oxo-1,4-dihydroquinoline-3-carboxylic acid] | ≥ 6.00
O=C(O)c1cn(-c2cncc(O)n2)c2cc(N3CCC[C@@H]3COc3ccccn3)c(F)cc2c1=O [Example 27, (R)-6-fluoro-1-(6-hydroxypyrazin-2-yl)-4-oxo-7-(2-((pyridin-2-yloxy)methyl)pyrrolidin-1-yl)-1,4-dihydroquinoline-3-carboxylic acid] | 5.00 to 6.00
O=C(O)c1cn(C2CC2)c2c(F)c(N3CCC[C@@H]3COc3cccnn3)c(F)cc2c1=O [Example 29, (R)-1-cyclopropyl-6,8-difluoro-4-oxo-7-(2-((pyridazin-3-yloxy)methyl)pyrrolidin-1-yl)-1,4-dihydroquinoline-3-carboxylic acid] | 5.00 to 6.00
CCS(=O)(=O)Nc1ccc(-n2cc(C(=O)O)c(=O)c3cc(Cl)c(N4CCC[C@@H]4COc4ncccc4Cl)cc32)cc1 [Example 31, (R)-6-chloro-7-(2-(((3-chloropyridin-2-yl)oxy)methyl)pyrrolidin-1-yl)-1-(4-(ethylsulfonamido)phenyl)-4-oxo-1,4-dihydroquinoline-3-carboxylic acid] | ≥ 6.00
O=C(O)c1cn(-c2ccc3c(c2F)CCN3)c2cc(N3CCC[C@@H]3COc3ccccn3)c(F)cc2c1=O [Example 32, (R)-6-fluoro-1-(4-fluoroindolin-5-yl)-4-oxo-7-(2-((pyridin-2-yloxy)methyl)pyrrolidin-1-yl)-1,4-dihydroquinoline-3-carboxylic acid] | ≥ 6.00
O=C(O)c1cn(-c2cnc(O)cn2)c2cc(N3CCC[C@@H]3COc3ccccn3)c(Cl)cc2c1=O [Example 33, 6-chloro-1-(5-hydroxypyrazin-2-yl)-4-oxo-7-[(2R)-2-[(pyridin-2-yloxy)methyl]pyrrolidin-1-yl]-1,4-dihydroquinoline-3-carboxylic acid] | ≥ 6.00
O=C(O)c1cn(-c2cnccn2)c2cc(N3C[C@@H](F)C[C@@H]3COc3ncccc3Cl)c(Cl)cc2c1=O [Example 41, 6-chloro-7-[(2R,4S)-2-{[(3-chloropyridin-2-yl)oxy]methyl}-4-fluoropyrrolidin-1-yl]-4-oxo-1-(pyrazin-2-yl)-1,4-dihydroquinoline-3-carboxylic acid] | ≥ 6.00
CN(C)C1CN(c2ccc(-n3cc(C(=O)O)c(=O)c4cc(C#N)c(N5C6CCC5(COc5ncccc5F)CC6)cc43)cn2)C1 [Example 42, 6-cyano-1-(6-(3-(dimethylamino)azetidin-1-yl)pyridin-3-yl)-7-(1-(((3-fluoropyridin-2-yl)oxy)methyl)-7-azabicyclo[2.2.1]heptan-7-yl)-4-oxo-1,4-dihydroquinoline-3-carboxylic acid] | ≥ 6.00
O=C(O)c1cn(-c2cnc(OCCO)cn2)c2cc(N3CCC[C@@H]3COc3ncccc3Cl)c(Cl)cc2c1=O [Example 45, 6-chloro-7-[(2R)-2-[[(3-chloropyridin-2-yl)oxy]methyl]pyrrolidin-1-yl]-1-[5-(2-hydroxyethoxy)pyrazin-2-yl]-4-oxoquinoline-3-carboxylic acid] | ≥ 6.00

Second part, the compound after the results:

pIC50 | SMILES
≥ 6.00 | NC1CN(c2ccc(-n3cc(C(=O)O)c(=O)c4cc(Cl)c(N5CCC[C@@H]5COc5ncccc5Cl)cc43)cn2)C1 [Example 28, (R)-1-(6-(3-aminoazetidin-1-yl)pyridin-3-yl)-6-chloro-7-(2-(((3-chloropyridin-2-yl)oxy)methyl)pyrrolidin-1-yl)-4-oxo-1,4-dihydroquinoline-3-carboxylic acid]
≥ 6.00 | COC1CC(n2cc(C(=O)O)c(=O)c3cc(F)c(N4CCC[C@@H]4COc4ncccc4C)cc32)C1 (stereo partly drawn) [Example 30, (R)-6-fluoro-1-(3-methoxycyclobutyl)-7-(2-(((3-methylpyridin-2-yl)oxy)methyl)pyrrolidin-1-yl)-4-oxo-1,4-dihydroquinoline-3-carboxylic acid]
5.00 to 6.00 | O=C(O)c1cn(C2CN(CCO)C2)c2cc(N3CCC[C@@H]3COc3ncccc3Cl)c(Cl)cc2c1=O [Example 34, 6-Chloro-7-[(2R)-2-{[(3-chloropyridin-2-yl)oxy]methyl}pyrrolidin-1-yl]-1-[1-(2-hydroxyethyl)azetidin-3-yl]-4-oxo-1,4-dihydroquinoline-3-carboxylic acid]
≥ 6.00 | Cc1cccnc1OC[C@H]1CCCN1c1cc2c(cc1C#N)c(=O)c(C(=O)O)cn2C1(C)CC1 [Example 35, 6-Cyano-1-(1-methylcyclopropyl)-7-[(2R)-2-{[(3-methylpyridin-2-yl)oxy]methyl}pyrrolidin-1-yl]-4-oxo-1,4-dihydroquinoline-3-carboxylic acid]
5.00 to 6.00 | CC(=O)N1CC(n2cc(C(=O)O)c(=O)c3cc(Cl)c(N4CCC[C@@H]4COc4ncccc4C)cc32)C1 [Example 36, 1-(1-Acetylazetidin-3-yl)-6-chloro-7-[(2R)-2-{[(3-methylpyridin-2-yl)oxy]methyl}pyrrolidin-1-yl]-4-oxo-1,4-dihydroquinoline-3-carboxylic acid]
5.00 to 6.00 | COCCN1CC(C)(n2cc(C(=O)O)c(=O)c3cc(Cl)c(N4CCC[C@@H]4COc4ncccc4Cl)cc32)C1 [Example 37, 6-Chloro-7-[(2R)-2-{[(3-chloropyridin-2-yl)oxy]methyl}pyrrolidin-1-yl]-1-[1-(2-methoxyethyl)-3-methylazetidin-3-yl]-4-oxo-1,4-dihydroquinoline-3-carboxylic acid]
5.00 to 6.00 | COCCN1CCC(n2cc(C(=O)O)c(=O)c3cc(Cl)c(N4CCC[C@@H]4COc4ncccc4Cl)cc32)C1 (stereo partly drawn) [Example 38, 6-Chloro-7-[(2R)-2-{[(3-chloropyridin-2-yl)oxy]methyl}-pyrrolidin-1-yl]-1-[1-(2-methoxyethyl)pyrrolidin-3-yl]-4-oxo-1,4-dihydroquinoline-3-carboxylic acid]
4.30 to 5.00 | CN(C)CCN1CCC(n2cc(C(=O)O)c(=O)c3cc(Cl)c(N4CCC[C@@H]4COc4ncccc4Cl)cc32)C1 (stereo partly drawn) [Example 39, 6-chloro-7-[(2R)-2-{[(3-chloropyridin-2-yl)oxy]methyl}pyrrolidin-1-yl]-1-{1-[2-(dimethylamino)ethyl]pyrrolidin-3-yl}-4-oxo-1,4-dihydroquinoline-3-carboxylic acid]
≥ 6.00 | Nc1ccc(-n2cc(C(=O)O)c(=O)c3cc(Cl)c(N4CCC[C@@H]4COc4ncccc4Cl)cc32)cn1 [Example 40, (R)-1-(6-aminopyridin-3-yl)-6-chloro-7-(2-(((3-chloropyridin-2-yl)oxy)methyl)pyrrolidin-1-yl)-4-oxo-1,4-dihydroquinoline-3-carboxylic acid]
≥ 6.00 | O=C(O)c1cn(-c2cnc3c(n2)COC3)c2cc(N3CCC[C@@H]3COc3ncccc3Cl)c(Cl)cc2c1=O [Example 46, 6-chloro-7-[(2R)-2-[[(3-chloropyridin-2-yl)oxy]methyl]pyrrolidin-1-yl]-1-[5H,7H-furo[3,4-b]pyrazin-2-yl]-4-oxoquinoline-3-carboxylic acid]
